Source: ChEMBL document CHEMBL1201861, “Genomics of Drug Sensitity in Cancer screening data, Wellcome Trust Sanger Institute”
Where a name gives a salt, the structure may show the parent alone.

Legend:
NCI-H2107 = experiment: SANGER: Inhibition of human NCI-H2107 cell growth in a cell viability assay.; format: functional, cell-based
TE-441-T = experiment: cells; format: functional, cell-based, Homo sapiens
Description: SANGER: Inhibition of human TE-441-T cell growth in a cell viability assay.

CHP-126 = experiment: cells; format: functional, cell-based, Homo sapiens
Description: SANGER: Inhibition of human CHP-126 cell growth in a cell viability assay.

KP-N-RT-BM-1 = experiment: SANGER: Inhibition of human KP-N-RT-BM-1 cell growth in a cell viability assay.; format: functional, cell-based
NCI-H1417 = experiment: cells; format: functional, cell-based, Homo sapiens
Description: SANGER: Inhibition of human NCI-H1417 cell growth in a cell viability assay.

BC-3 = experiment: cells; format: functional, cell-based, Homo sapiens
Description: SANGER: Inhibition of human BC-3 cell growth in a cell viability assay.

C-4-II = experiment: SANGER: Inhibition of human C-4-II cell growth in a cell viability assay.; format: functional, cell-based
NCI-H1618 = experiment: cells; format: functional, cell-based, Homo sapiens
Description: SANGER: Inhibition of human NCI-H1618 cell growth in a cell viability assay.

Caov-3 cell line = experiment: cells; format: functional, cell-based, Homo sapiens
Description: SANGER: Inhibition of human Caov-3 cell growth in a cell viability assay.

HOS = experiment: cells; format: functional, cell-based, Homo sapiens
Description: SANGER: Inhibition of human HOS cell growth in a cell viability assay.

BHT-101 = experiment: cells; format: functional, cell-based, Homo sapiens
Description: SANGER: Inhibition of human BHT-101 cell growth in a cell viability assay.

NCI-H1755 = experiment: cells; format: functional, cell-based, Homo sapiens
Description: SANGER: Inhibition of human NCI-H1755 cell growth in a cell viability assay.

NCI-H2228 = experiment: cells; format: functional, cell-based, Homo sapiens
Description: SANGER: Inhibition of human NCI-H2228 cell growth in a cell viability assay.

DU-145 = experiment: cells; format: functional, cell-based, Homo sapiens
Description: SANGER: Inhibition of human DU-145 cell growth in a cell viability assay.

PC-3 = experiment: cells; format: functional, cell-based, Homo sapiens
Description: SANGER: Inhibition of human PC-3 cell growth in a cell viability assay.

CAL-27 = experiment: cells; format: functional, cell-based, Homo sapiens
Description: SANGER: Inhibition of human CAL-27 cell growth in a cell viability assay.

VM-CUB-1 = experiment: cells; format: functional, cell-based, Homo sapiens
Description: SANGER: Inhibition of human VM-CUB-1 cell growth in a cell viability assay.

PFSK-1 = experiment: cells; format: functional, cell-based, Homo sapiens
Description: SANGER: Inhibition of human PFSK-1 cell growth in a cell viability assay.

MES-SA = experiment: cells; format: functional, cell-based, Homo sapiens
Description: SANGER: Inhibition of human MES-SA cell growth in a cell viability assay.

SNU-475 = experiment: cells; format: functional, cell-based, Homo sapiens
Description: SANGER: Inhibition of human SNU-475 cell growth in a cell viability assay.

NCI-H2227 = experiment: cells; format: functional, cell-based, Homo sapiens
Description: SANGER: Inhibition of human NCI-H2227 cell growth in a cell viability assay.

ASPC1 = experiment: cells; format: functional, cell-based, Homo sapiens
Description: SANGER: Inhibition of human AsPC-1 cell growth in a cell viability assay.

SK-MEL-30 = experiment: cells; format: functional, cell-based, Homo sapiens
Description: SANGER: Inhibition of human SK-MEL-30 cell growth in a cell viability assay.

HT1197 = experiment: cells; format: functional, cell-based, Homo sapiens, HT-1197
Description: SANGER: Inhibition of human HT-1197 cell growth in a cell viability assay.

A-375 = experiment: cells; format: functional, cell-based, Homo sapiens
Description: SANGER: Inhibition of human A375 cell growth in a cell viability assay.

NCI-H1734 = experiment: cells; format: functional, cell-based, Homo sapiens
Description: SANGER: Inhibition of human NCI-H1734 cell growth in a cell viability assay.

NCI-H1793 = experiment: cells; format: functional, cell-based, Homo sapiens
Description: SANGER: Inhibition of human NCI-H1793 cell growth in a cell viability assay.

HT-29 = experiment: cells; format: functional, cell-based, Homo sapiens
Description: SANGER: Inhibition of human HT-29 cell growth in a cell viability assay.

HSC-2 = experiment: cells; format: functional, cell-based, Homo sapiens
Description: SANGER: Inhibition of human HSC-2 cell growth in a cell viability assay.

SW1463 = experiment: cells; format: functional, cell-based, Homo sapiens
Description: SANGER: Inhibition of human SW1463 cell growth in a cell viability assay.

MDA-MB-468 = experiment: cells; format: functional, cell-based, Homo sapiens
Description: SANGER: Inhibition of human MDA-MB-468 cell growth in a cell viability assay.

CAMA-1 = experiment: cells; format: functional, cell-based, Homo sapiens
Description: SANGER: Inhibition of human CAMA-1 cell growth in a cell viability assay.

KYSE-180 = experiment: cells; format: functional, cell-based, Homo sapiens
Description: SANGER: Inhibition of human KYSE-180 cell growth in a cell viability assay.

CHL-1 = experiment: cells; format: functional, cell-based, Homo sapiens
Description: SANGER: Inhibition of human CHL-1 cell growth in a cell viability assay.

SK-MEL-28 = experiment: cells; format: functional, cell-based, Homo sapiens
Description: SANGER: Inhibition of human SK-MEL-28 cell growth in a cell viability assay.

HLE = experiment: cells; format: functional, cell-based, Homo sapiens
Description: SANGER: Inhibition of human HLE cell growth in a cell viability assay.

DMS-53 = experiment: cells; format: functional, cell-based, Homo sapiens
Description: SANGER: Inhibition of human DMS-53 cell growth in a cell viability assay.

NCI-H838 = experiment: cells; format: functional, cell-based, Homo sapiens
Description: SANGER: Inhibition of human NCI-H838 cell growth in a cell viability assay.

EW-7 = experiment: SANGER: Inhibition of human EW-7 cell growth in a cell viability assay.; format: functional, cell-based
PANC-03-27 = experiment: cells; format: functional, cell-based, Homo sapiens
Description: SANGER: Inhibition of human PANC-03-27 cell growth in a cell viability assay.

COLO 205 = experiment: cells; format: functional, cell-based, Homo sapiens
Description: SANGER: Inhibition of human COLO-205 cell growth in a cell viability assay.

HEC-1 = experiment: cells; format: functional, cell-based, Homo sapiens
Description: SANGER: Inhibition of human HEC-1 cell growth in a cell viability assay.

## COc1cc2ncn(-c3cc(OCc4ccccc4C(F)(F)F)c(C(N)=O)s3)c2cc1OC [GW843682X]
NCI-H2107
  IC50: > 0.256 µM
TE-441-T; Homo sapiens, TE-441-T
  IC50: > 0.256 µM
CHP-126; Homo sapiens, CHP-126
  IC50: > 0.256 µM
KP-N-RT-BM-1
  IC50: 0.131 µM
NCI-H1417; Homo sapiens, NCI-H1417
  IC50: > 0.256 µM
BC-3; Homo sapiens, BC-3
  IC50: > 0.256 µM

## COC1=CC(c2cc3ccccc3[nH]2)=N/C1=C\c1[nH]c(C)cc1C [OBATOCLAX MESYLATE]
C-4-II; Homo sapiens, C-4-II
  IC50: 3.76 µM
NCI-H1618; Homo sapiens, NCI-H1618
  IC50: 2.88 µM
Caov-3 cell line; Homo sapiens, Caov-3
  IC50: 1.69 µM
HOS; Homo sapiens, HOS
  IC50: 0.0347 µM
BHT-101; Homo sapiens, BHT-101
  IC50: < 0.0625 µM
TE-441-T; Homo sapiens, TE-441-T
  IC50: 1.43 µM
CHP-126; Homo sapiens, CHP-126
  IC50: 1.57 µM
NCI-H1755; Homo sapiens, NCI-H1755
  IC50: 5.23 µM
NCI-H2228; Homo sapiens, NCI-H2228
  IC50: 0.893 µM
DU-145; Homo sapiens, DU-145
  IC50: 0.467 µM
PC-3; Homo sapiens, PC-3
  IC50: 1.75 µM
CAL-27; Homo sapiens, CAL-27
  IC50: 0.0646 µM
VM-CUB-1; Homo sapiens, VM-CUB-1
  IC50: 0.713 µM
PFSK-1; Homo sapiens, PFSK-1
  IC50: 1.21 µM
MES-SA; Homo sapiens, MES-SA
  IC50: 0.405 µM
SNU-475; Homo sapiens, SNU-475
  IC50: > 16 µM
NCI-H2227; Homo sapiens, NCI-H2227
  IC50: > 16 µM
ASPC1; Homo sapiens, ASPC1
  IC50: 7.49 µM
SK-MEL-30; Homo sapiens, SK-MEL-30
  IC50: < 0.0625 µM
HT1197; Homo sapiens, HT1197
  IC50: 0.395 µM
A-375; Homo sapiens, A-375
  IC50: < 0.0625 µM
NCI-H1734; Homo sapiens, NCI-H1734
  IC50: 0.42 µM
NCI-H1793; Homo sapiens, NCI-H1793
  IC50: > 16 µM
HT-29; Homo sapiens, HT-29
  IC50: 0.0449 µM
HSC-2; Homo sapiens, HSC-2
  IC50: 0.0247 µM
SW1463; Homo sapiens, SW1463
  IC50: 1.32 µM
MDA-MB-468; Homo sapiens, MDA-MB-468
  IC50: 0.917 µM
NCI-H1417; Homo sapiens, NCI-H1417
  IC50: 0.265 µM
CAMA-1; Homo sapiens, CAMA-1
  IC50: 0.436 µM
BC-3; Homo sapiens, BC-3
  IC50: 2.37 µM
KYSE-180; Homo sapiens, KYSE-180
  IC50: 0.0614 µM
CHL-1; Homo sapiens, CHL-1
  IC50: 0.0486 µM
SK-MEL-28; Homo sapiens, SK-MEL-28
  IC50: 1.23 µM
HLE; Homo sapiens, HLE
  IC50: 0.169 µM
DMS-53; Homo sapiens, DMS-53
  IC50: 0.478 µM
NCI-H838; Homo sapiens, NCI-H838
  IC50: 0.528 µM
EW-7; Homo sapiens, EW-7
  IC50: < 0.0625 µM
PANC-03-27; Homo sapiens, PANC-03-27
  IC50: 0.0967 µM
COLO 205; Homo sapiens, COLO 205
  IC50: 0.0572 µM
HEC-1; Homo sapiens, HEC-1
  IC50: 0.0368 µM

## CC(=O)O[C@H]1C(=O)[C@@]2(C)[C@H]([C@H](OC(=O)c3ccccc3)[C@]3(O)C[C@H](OC(=O)[C@H](O)[C@@H](NC(=O)c4ccccc4)c4ccccc4)C(C)=C1C3(C)C)[C@]1(OC(C)=O)CO[C@@H]1C[C@@H]2O [PACLITAXEL]
NCI-H2107
  IC50: > 0.102 µM
TE-441-T; Homo sapiens, TE-441-T
  IC50: > 0.102 µM
CHP-126; Homo sapiens, CHP-126
  IC50: > 0.102 µM
KP-N-RT-BM-1
  IC50: > 0.102 µM
NCI-H1417; Homo sapiens, NCI-H1417
  IC50: > 0.102 µM
BC-3; Homo sapiens, BC-3
  IC50: 0.0234 µM

## N[C@@H](CSC(c1ccccc1)(c1ccccc1)c1ccccc1)C(=O)O [S-TRITYL-L-CYSTEINE]
NCI-H2107
  IC50: > 5.12 µM
TE-441-T; Homo sapiens, TE-441-T
  IC50: 4.79 µM
CHP-126; Homo sapiens, CHP-126
  IC50: > 5.12 µM
KP-N-RT-BM-1
  IC50: > 5.12 µM
NCI-H1417; Homo sapiens, NCI-H1417
  IC50: > 5.12 µM
BC-3; Homo sapiens, BC-3
  IC50: 2.19 µM

## CCN(CC)CCNC(=O)c1c(C)[nH]c(/C=C2\C(=O)Nc3ccc(F)cc32)c1C [SUNITINIB]
NCI-H2107
  IC50: > 8 µM
TE-441-T; Homo sapiens, TE-441-T
  IC50: > 8 µM
CHP-126; Homo sapiens, CHP-126
  IC50: > 8 µM
KP-N-RT-BM-1
  IC50: > 8 µM
NCI-H1417; Homo sapiens, NCI-H1417
  IC50: > 8 µM
BC-3; Homo sapiens, BC-3
  IC50: > 8 µM

## BLEOMYCIN
C-4-II; c-4-ii
  IC50: 0.381 µM
NCI-H1618; nci-h1618
  IC50: 5.99 µM
Caov-3 cell line; caov-3
  IC50: 20.5 µM
HOS; hos
  IC50: 0.56 µM
BHT-101; bht-101
  IC50: 7.34 µM
TE-441-T; te-441-t
  IC50: 24.6 µM
CHP-126; chp-126
  IC50: 1.27 µM
NCI-H1755; nci-h1755
  IC50: 26 µM
NCI-H2228; nci-h2228
  IC50: 0.955 µM
DU-145; du-145
  IC50: 0.823 µM
PC-3; pc-3
  IC50: 13.3 µM
CAL-27; cal-27
  IC50: 8.07 µM
VM-CUB-1; vm-cub-1
  IC50: 4.92 µM
PFSK-1; pfsk-1
  IC50: 33.4 µM
MES-SA; mes-sa
  IC50: 1.67 µM
SNU-475; snu-475
  IC50: 67.5 µM
NCI-H2227; nci-h2227
  IC50: 721 µM
ASPC1; aspc1
  IC50: 82.5 µM
SK-MEL-30; sk-mel-30
  IC50: 0.377 µM
HT1197; ht-1197
  IC50: 2.74 µM
A-375; a-375
  IC50: 0.0711 µM
NCI-H1734; nci-h1734
  IC50: 0.0174 µM
NCI-H1793; nci-h1793
  IC50: 27.2 µM
HT-29; ht-29
  IC50: 0.535 µM
HSC-2; hsc-2
  IC50: 2.47 µM
SW1463; sw1463
  IC50: 23.4 µM
MDA-MB-468; mda-mb-468
  IC50: 67.6 µM
NCI-H1417; nci-h1417
  IC50: 30.4 µM
CAMA-1; cama-1
  IC50: 17.5 µM
BC-3; bc-3
  IC50: 0.521 µM
KYSE-180; kyse-180
  IC50: 3.8 µM
CHL-1; chl-1
  IC50: 0.732 µM
SK-MEL-28; sk-mel-28
  IC50: 1860 µM
HLE; hle
  IC50: 4 µM
DMS-53; dms-53
  IC50: 319 µM
NCI-H838; nci-h838
  IC50: 5.95 µM
EW-7; ew-7
  IC50: 3.06 µM
PANC-03-27; panc-03-27
  IC50: 0.316 µM
COLO 205; colo-205
  IC50: 3.24 µM
HEC-1; hec-1
  IC50: 27.4 µM
